Assay results reported in patent US5455222A, “1-substituted-5-thiomethylthiocyanato-1H-tetrazoles, compositions containing them and their use as antimicrobial and marine antifouling agents” (The Dow Chemical Company, priority 1994, dated 1995).
In brackets after ≈: the same amount, converted by molar mass.

Legend:
[1] = system: Klebsiella pneumoniae (Kp); experiment: Minimum inhibitory concentration (MIC), bacteria in nutrient agar; type: cell-based, Klebsiella pneumoniae ATCC 8308; conditions: 48 hours
Description: (§1) The minimum inhibitory concentration (MIC) for the compounds listed in Table I is determined for 9 bacteria, using nutrient agar, and 7 yeast and fungi, using malt yeast agar. A one percent solution of the test compound is prepared in a mixture of acetone and water.
(§2) Nutrient agar is prepared at pH 6.8, representing a neutral medium, and at pH 8.2, representing an alkaline medium. The nutrient agars are prepared by adding 23 g of nutrient agar to one liter of deionized water. In addition, the alkaline medium is prepared by adjusting a 0.04M solution of N-[tris-(hydroxymethyl)methyl]glycine buffered deionized water with concentrated sodium hydroxide to a pH of 8.5.
(§3) The test tubes containing the agar are cooled in a water bath until the temperature of the agar is 48° C. Then, an appropriate amount of the one percent solution of the test compound is added (except in the controls where no compound is added) to the respective test tubes so that the final concentrations are 500, 250, 100, 50, 25, 10, 5, 2.5, 1.0 and zero parts per million of the test compound in the agar, thus having a known concentration of test compound dispersed therein. The contents of the test tubes are then transferred to respective petri plates. After drying for 24 hours, the petri plates containing nutrient agar are inoculated with bacteria and those containing malt yeast agar are inoculated with yeast and fungi.
(§4) The inoculation with bacteria is accomplished by using the following procedure. Twenty-four hour-cultures of each of the bacteria are prepared by incubating the respective bacteria in tubes containing nutrient broth for 24 hours at 30° C. in a shaker. Dilutions of each of the 24 hour-cultures are made so that nine separate suspensions (one for each of the nine test bacteria) are made, each containing 10^8 colony forming units (CFU) per mL of suspension of a particular bacteria. Aliquots of 0.3 mL of each of the bacterial suspensions are used to fill the individual wells of Steer's Replicator. For each microbial suspension, 0.3 mL was used to fill three wells (i.e., three wells of 0.3 mL each) so that for the nine different bacteria, 27 wells are filled. The Steer's Replicator is then used to inoculate both the neutral and alkaline pH nutrient agar petri plates.
(§5) The inoculated petri plates are incubated at 30° C. for 48 hours and then read to determine if the test compound which is incorporated into the agar prevented growth of the respective bacteria.
(§6) Table II lists the bacteria, yeast and fungi used in the MIC test described above along with their respective American Type Culture Collection (ATCC) identification numbers.
(§7) In Tables III and IV, the MIC values of the compounds described in Table I as compared to the MIC of a standard commercial preservative (with 1-(3-chloroallyl)-3,5,7-triaza-1-azoniaadamantane chloride as the active agent and referred to in Tables III and IV as "STANDARD I") are set forth for the bacteria organisms and yeast/fungi organisms which are listed in Table II.

[2] = system: Penicillium chrysogenum (Pc); experiment: Minimum inhibitory concentration (MIC), yeast/fungi in malt yeast agar; type: cell-based, Penicillium chrysogenum ATCC 9480; conditions: 30° C., 72 hours for fungi
Description: as §1
(§8) Malt yeast agar is prepared by adding 3 g yeast extract and 45 g malt agar per liter of deionized water. The specific agar is dispensed in 30 mL aliquots into 25×200 mm test tubes, capped and autoclaved for 15 minutes at 115° C.
as §3
(§9) The inoculation with the yeast and fungi is accomplished as follows. Cultures of yeast and fungi are incubated for seven days on malt yeast agar at 30° C. These cultures are used to prepare suspensions by the following procedure. A suspension of each organism is prepared by adding 10 mL of sterile saline and 10 microliters of octylphenoxy polyethoxy ethanol to the agar slant of yeast or fungi. The sterile saline/octylphenoxy polyethoxy ethanol solution is then agitated with a sterile swab to suspend the microorganism grown on the slant. Each resulting suspension is diluted into sterile saline (1 part suspension to 9 parts sterile saline). Aliquots of these dilutions are placed in individual wells of Steer's Replicator and petri plates inoculated as previously described. The petri plates are incubated at 30° C. and read after 48 hours for yeast and 72 hours for fungi.
as §6, §7

Escherichia coli (Ec) = experiment: Minimum inhibitory concentration (MIC), bacteria in nutrient agar; type: cell-based, Escherichia coli ATCC 11229; conditions: 48 hours
Description: as §1, §2, §3, §4, §5, §6, §7

[3] = system: Enterobacter aerogenes (Ea); experiment: as above; type: cell-based, Enterobacter aerogenes ATCC 13048; conditions: Klebsiella aerogenes, 48 hours
Description: as §1, §2, §3, §4, §5, §6, §7

Proteus vulgaris (Pv) = experiment: as above; type: cell-based, Proteus vulgaris ATCC 881; conditions: 48 hours
Description: as §1, §2, §3, §4, §5, §6, §7

[4] = system: Saccharomyces cerevisiae (Sc); experiment: Minimum inhibitory concentration (MIC), yeast/fungi in malt yeast agar; type: cell-based, Saccharomyces cerevisiae ATCC 4105; conditions: 30° C., 48 hours for yeast
Description: as §1, §8, §3, §9, §6, §7

Fusarium oxysporum (Fo) = experiment: as above; type: cell-based, Fusarium oxysporum ATCC 48112; conditions: 30° C., 72 hours for fungi
Description: as §1, §8, §3, §9, §6, §7

Bacillus subtilis (Bs) = experiment: Minimum inhibitory concentration (MIC), bacteria in nutrient agar; type: cell-based, Bacillus subtilis ATCC 8473; conditions: 48 hours
Description: as §1, §2, §3, §4, §5, §6, §7

[5] = system: Salmonella choleraesuis (Sc); experiment: as above; type: cell-based, Salmonella choleraesuis ATCC 10708; conditions: Salmonella enterica, 48 hours
Description: as §1, §2, §3, §4, §5, §6, §7

Trichoderma viride (Tv) = experiment: Minimum inhibitory concentration (MIC), yeast/fungi in malt yeast agar; type: cell-based, Trichoderma viride ATCC 8678; conditions: 30° C., 72 hours for fungi
Description: as §1, §8, §3, §9, §6, §7

[6] = system: Staphylococcus aureus (Sa); experiment: Minimum inhibitory concentration (MIC), bacteria in nutrient agar; type: cell-based, Staphylococcus aureus ATCC 6538; conditions: 48 hours
Description: as §1, §2, §3, §4, §5, §6, §7

Candida albicans (Ca) = experiment: Minimum inhibitory concentration (MIC), yeast/fungi in malt yeast agar; type: cell-based, Candida albicans ATCC 10231; conditions: 30° C., 48 hours for yeast
Description: as §1, §8, §3, §9, §6, §7

Aspergillus niger (An) = experiment: as above; type: cell-based, Aspergillus niger ATCC 16404; conditions: 30° C., 72 hours for fungi
Description: as §1, §8, §3, §9, §6, §7

[7] = system: Pseudomonas aeruginosa (PRD-10); experiment: Minimum inhibitory concentration (MIC), bacteria in nutrient agar; type: cell-based, Pseudomonas aeruginosa ATCC 15442; conditions: 48 hours
Description: as §1, §2, §3, §4, §5, §6, §7

[8] = system: Aureobasidium pullulan (Ap); experiment: Minimum inhibitory concentration (MIC), yeast/fungi in malt yeast agar; type: cell-based, Aureobasidium pullulan ATCC 16622; conditions: 30° C., read after 48 hours for yeast and 72 hours for fungi
Description: as §1, §8, §3, §9, §6, §7

Structure (SMILES)	MIC ([1]; nutrient agar pH 6.8, 30° C.) [µg/mL]	MIC ([1]; nutrient agar pH 8.2, 30° C.) [µg/mL]	MIC [2] [µg/mL]	MIC (Escherichia coli (Ec); nutrient agar pH 6.8, 30° C.) [µg/mL]	MIC (Escherichia coli (Ec); nutrient agar pH 8.2, 30° C.) [µg/mL]	MIC ([3]; nutrient agar pH 6.8, 30° C.) [µg/mL]	MIC ([3]; nutrient agar pH 8.2, 30° C.) [µg/mL]	MIC (Proteus vulgaris (Pv); nutrient agar pH 6.8, 30° C.) [µg/mL]	MIC (Proteus vulgaris (Pv); nutrient agar pH 8.2, 30° C.) [µg/mL]	MIC [4] [µg/mL]	MIC (Fusarium oxysporum (Fo)) [µg/mL]	MIC (Bacillus subtilis (Bs); nutrient agar pH 6.8, 30° C.) [µg/mL]	MIC (Bacillus subtilis (Bs); nutrient agar pH 8.2, 30° C.) [µg/mL]	MIC ([5]; nutrient agar pH 6.8, 30° C.) [µg/mL]	MIC ([5]; nutrient agar pH 8.2, 30° C.) [µg/mL]	MIC (Trichoderma viride (Tv)) [µg/mL]	MIC ([6]; nutrient agar pH 6.8, 30° C.) [µg/mL]	MIC ([6]; nutrient agar pH 8.2, 30° C.) [µg/mL]	MIC (Candida albicans (Ca)) [µg/mL]	MIC (Aspergillus niger (An)) [µg/mL]	also measured
N#CSCSc1nnnn1-c1ccc(Br)cc1 [IV, 1-(4-Bromophenyl)-5-thiomethylthiocyanato-1H-tetrazole]	500 (≈ 1520 µM)	500 (≈ 1520 µM)	< 10	500 (≈ 1520 µM)	500 (≈ 1520 µM)	500 (≈ 1520 µM)	500 (≈ 1520 µM)	500 (≈ 1520 µM)	500 (≈ 1520 µM)	< 10	< 10	< 10	25 (≈ 76.2 µM)	500 (≈ 1520 µM)	500 (≈ 1520 µM)	25 (≈ 76.2 µM)	500 (≈ 1520 µM)	500 (≈ 1520 µM)	25 (≈ 76.2 µM)	< 10	MIC ([7]; nutrient agar pH 6.8, 30° C.): 500 µg/mL (≈ 1520 µM); MIC ([7]; nutrient agar pH 8.2, 30° C.): 500 µg/mL (≈ 1520 µM); MIC [8]: < 10 µg/mL
CC(C)(C)c1ccc(-n2nnnc2SCSC#N)cc1 [IX, 1-(tertiary-Butylphenyl)-5-thiomethylthiocyanato-1H-tetrazole]	250 (≈ 819 µM)	100 (≈ 327 µM)	2.5 (≈ 8.19 µM)	50 (≈ 164 µM)	250 (≈ 819 µM)	500 (≈ 1640 µM)	500 (≈ 1640 µM)	250 (≈ 819 µM)	100 (≈ 327 µM)	10 (≈ 32.7 µM)	25 (≈ 81.9 µM)	25 (≈ 81.9 µM)	50 (≈ 164 µM)	50 (≈ 164 µM)	100 (≈ 327 µM)	100 (≈ 327 µM)	50 (≈ 164 µM)	50 (≈ 164 µM)	100 (≈ 327 µM)	5 (≈ 16.4 µM)	MIC ([7]; nutrient agar pH 6.8, 30° C.): 500 µg/mL (≈ 1640 µM); MIC ([7]; nutrient agar pH 8.2, 30° C.): 500 µg/mL (≈ 1640 µM); MIC [8]: 2.5 µg/mL (≈ 8.19 µM)
N#CSCSc1nnnn1-c1ccc(F)cc1 [V, 1-(4-Fluorophenyl)-5-thiomethylthiocyanato-1H-tetrazole]	100 (≈ 374 µM)	250 (≈ 935 µM)	2.5 (≈ 9.35 µM)	100 (≈ 374 µM)	500 (≈ 1870 µM)	250 (≈ 935 µM)	500 (≈ 1870 µM)	50 (≈ 187 µM)	250 (≈ 935 µM)	5 (≈ 18.7 µM)	5 (≈ 18.7 µM)	< 10	50 (≈ 187 µM)	100 (≈ 374 µM)	250 (≈ 935 µM)	25 (≈ 93.5 µM)	25 (≈ 93.5 µM)	50 (≈ 187 µM)	25 (≈ 93.5 µM)	5 (≈ 18.7 µM)	MIC ([7]; nutrient agar pH 6.8, 30° C.): 50 µg/mL (≈ 187 µM); MIC ([7]; nutrient agar pH 8.2, 30° C.): 100 µg/mL (≈ 374 µM); MIC [8]: 2.5 µg/mL (≈ 9.35 µM)
